Data set [1] relates to cilia (ACIII) in Tsc2-sh hippocampal neurons. As to the kind of experiment: cilia^HCA (GFP+ ACIII+ neurons) in Tsc2-sh neurons. The format is cell-based, rat. Conditions: for ciliation, acute effect: 24 hrs at DIV20, concentrations that inhibited mTORC1 (8.5 μM 17-AGG, 9 μM GA, 5.5 μM rapamycin); for rescue of cilia at later ages in culture: four-day treatment between DIV16-20, endpoint DIV20. The text has this: To investigate how mTORC1 dysregulation due to neuronal TSC loss affected ciliation, High Content image-based Assays (HCAs) were developed for unbiased quantification of cilia and mTORC1 activity (hereafter cilia^HCA and mTORC1^HCA) in primary neurons. As an in vitro model of TSC, rat hippocampal neurons transduced with lentiviral vectors (LV) expressing a short hairpin RNA (shRNA) were used directed against either the Tsc2 (Tsc2-sh) or the luciferase gene as a control (ctrl-sh) tagged with GFP. LV-mediated Tsc2 knockdown recapitulates several in vivo manifestations observed in mouse models of TSC (Di Nardo et al., Tuberous sclerosis complex activity is required to control neuronal stress responses in an mTOR-dependent manner; J Neurosci 29, 5926-5937 (2009); Di Nardo et al., Neuronal Tsc1/2 complex controls autophagy through AMPK-dependent regulation of ULK1; Hum Mol Genet 23, 3865-3874 (2014); Ebrahimi-Fakhari et al., Impaired Mitochondrial Dynamics and Mitophagy in Neuronal Models of Tuberous Sclerosis Complex; Cell Rep 17, 1053-1070 (2016); Ercan et al., Neuronal CTGF/CCN2 negatively regulates myelination in a mouse model of tuberous sclerosis complex; The Journal of experimental medicine 214, 681-697 (2017); Nie et al., The Stress-Induced Atf3-Gelsolin Cascade Underlies Dendritic Spine Deficits in Neuronal Models of Tuberous Sclerosis Complex; J Neurosci 35, 10762-10772 (2015); Nie et al., Tsc2-Rheb signaling regulates EphA-mediated axon guidance. Nat Neurosci 13, 163-172 (2010)). In vitro phenotypes include robust TSC2 protein downregulation and mTORC1 activation as shown by the time course of increased phosphorylation of ribosomal protein S6 at serine 240/244 (pS6) (FIGS. 8A-B). Both the cilia^HCA and mTORC1^HCA were optimized as imaged-based assays, where cilia and mTORC1 activity was monitored by immunofluorescent staining of ACIII to identify cilia and pS6 as a proxy of mTORC1 activation (FIGS. 8C-F). Neurons were transduced in culture at day in vitro (DIV) 1, and cilia and mTORC1 activity were assessed in a time course experiment at DIV2, 5, 7, 13, and 20 (FIG. 2A). LV-infected neurons with cilia or with phosphorylated S6 (GFP^+ ACIII^+ and GFP^+pS6^+ respectively) were identified by automated algorithms to detect subcellular structures and their co-localization specifically optimized for each assay. In control neurons, cilia development was observed between DIV2-5, which remained stable between DIV7 and DIV20 (FIGS. 2B, D). […] Reduced ciliation was validated by manual imaging and quantification of LV-infected neurons co-labeled with ACIII/centrin (FIGS. 8G-H). No changes in size or ACIII intensity were detected in the remaining cilia of the Tsc2-sh neurons (FIGS. 8I-J).
Rat hippocampal neurons were plated at a density of 20,000/well in 96-well plates (Greiner #655090) coated with Poly-D-Lysine (PDL) at 20 μg/ml. Neurons were transduced with lentivirus and processed for immunofluorescent staining at endpoint assay by fixation with 4% PFA followed by permeabilization in ice cold 100% Methanol. Neurons were then washed 3 times in PBS/0.05% Tween (PBT) containing 50 mM glycine and blocked in 2% bovine serum albumin (Sigma) in PBT (PBT/Block) at RT. For consistent and robust identification of the LV-infected neurons, cultures of both the cilia^HCA and mTORC1^HCA were stained with GFP antibody and co-labeled with ACIII or pS6 for the identification of respectively cilia and mTORC1 activity. Primary antibodies were incubated in PBT/Block overnight. The following day, neurons were washed in PBT and incubated with secondary antibodies followed by Hoechst staining. After washing with PBT, neurons were kept in PBS buffer. Aside from primary and secondary antibody administration, all the washing for immunofluorescent staining was done using the Agilent bravo automated liquid handler. […]

For a further data set, the system named is Tsc2-sh neurons. As to the kind of experiment: Toxicity: number of nuclei per field in Tsc2-sh neurons. The format is cell-based, rat. Conditions: four days (DIV9-13), nuclei stained at DIV13. The protocol: HSP90 inhibitors were tested to determine their effect on ciliation in TSC2-deficient neurons. Tsc2 was knocked down using an shRNA in primary rat neurons. The neurons were then treated with different doses of either CUDC-305 or NPV-HSP-990. To assess toxicity for CUDC-305, Tsc2-sh neurons were treated with increasing concentrations (6 nM, 12.5 nM, 25 nM, 50 nM, 100 nM, 200 nM, 400 nM) of CUDC-305 for four days (DIV9-13) and then stained for nuclei at DIV13 to determine the number of nuclei per field. […] The effect of ciliation of Tsc2-sh neurons after treatment with CUDC-305 was then examined.
Another HSP90 inhibitor, NPV-HSP-990, was examined for its effect on ciliation in TSC2-deficient neurons. To assess toxicity for NPV-HSP-990, Tsc2-sh neurons were treated with increasing concentrations (0.05 nM, 0.16 nM, 0.5 nM, 1.5 nM, 4.4 nM, 13.3 nM, 40 nM) of NPV-HSP-990 for four days (DIV9-13) and then stained for nuclei at DIV 13 to determine the number of nuclei per field.

Setting [2] is: four days (DIV9-13), any dose tested.

pEC50: −log10 of the molar value.

What is called pEC50 is the EC50 on a negative log10 scale, so that one unit is a factor of ten.

As for `C=CCNC1=C2C[C@@H](C)C[C@H](OC)[C@H](O)[C@@H](C)/C=C(\C)[C@H](OC(N)=O)[C@@H](OC)C=C/C=C(\C)C(=O)NC(=CC1=O)C2=O` [17-AGG, 3 S,5S,6R,7S,8E,10R,11S,12E,14E)-21-(allylamino)-6-hydroxy-5,11-dimethoxy-3,7,9,15-tetramethyl-16,20,22-trioxo-17-azabicyclo[16.3.1]docosa-8,12,14,18,21-pentaen-10-yl] carbamate], in data set [1], the “ciliation, acute effect” value is listed as “Neither of the Hsp90 inhibitors nor rapamycin rescued ciliation” and the “rescue of cilia at later ages in culture” value is recorded as “Neither rapamycin nor a four-day 17-AGG treatment regimen was able to rescue the cilia”. In addition, in data set [1] (Rattus norvegicus, Hippocampal neuron, treatment between DIV9-13, read-out: EC50^cilia (cilia rescue)), the negative-log EC50 (pEC50) was 7.82.

For `CN(C)c1cc2c(cc1Sc1nc3c(N)nccc3n1CCNCC(C)(C)C)OCO2` [CUDC-305, 4-amino-2-[[6-(dimethylamino)-1,3-benzodioxol-5-yl]thio]-N-(2,2-dimethylpropyl)-1H-imidazo[4,5-c]pyridine-1-ethanamine], in the data set with Tsc2-sh neurons, the “doses at which the number of nuclei began to reduce (suggestive of toxicity)” value is listed as “above 100 nM”. Besides, in data set [1] (setting [2]), the ciliation entry is “No increase”.

Turning to `COc1cccc(-c2cc(F)ccc2[C@H]2Cc3nc(N)nc(C)c3C(=O)N2)n1` [NPV-HSP-990, (R)-2-amino-7-((R)-4-fluoro-2-(6-methoxypyridin-2-yl)phenyl)-4-methyl-7,8-dihydropyrido[4,3-d]pyrimidin-5(6H)-one], the “doses at which the number of nuclei began to reduce (suggestive of toxicity)” value with Tsc2-sh neurons is “above 4.4 nM”. Besides, the ciliation entry in data set [1] (setting [2]) is “not observed”.

Take `CO[C@H]1C[C@@H]2CC[C@@H](C)[C@@](O)(O2)C(=O)C(=O)N2CCCC[C@H]2C(=O)O[C@H]([C@H](C)C[C@@H]2CC[C@@H](O)[C@H](OC)C2)CC(=O)[C@H](C)/C=C(\C)[C@@H](O)[C@@H](OC)C(=O)[C@H](C)C[C@H](C)/C=C/C=C/C=C/1C` [rapamycin]: the “ciliation, acute effect” value in data set [1] is listed as “Neither of the Hsp90 inhibitors nor rapamycin rescued ciliation”. Moreover, the “rescue of cilia at later ages in culture” value in data set [1] was “Neither rapamycin nor a four-day 17-AGG treatment regimen was able to rescue the cilia”. Also, the ciliation entry in data set [1] (rapamycin 20 nM acute (1 day) treatment) is reported as “no effect”; in data set [1] (rapamycin 20 nM for eight days between DIV5-13), “significant increase”; in data set [1] (rapamycin 20 nM for four days between DIV9-13), “significant increase”; in data set [1] (rapamycin 20 nM, later ages (DIV20) in culture) it was “no effect”.

Values taken from patent US20230218577A1, “USE OF HEAT SHOCK PROTEIN INHIBITORS FOR THE TREATMENT OF NEURODEVELOPMENTAL DISORDERS” (The Children's Medical Center Corporation, priority 2020, published 2023).
